# In patent publication US20200017495A1, “NOVEL HETEROCYCLIC COMPOUNDS AND THEIR USE IN PREVENTING OR TREATING BACTERIAL INFECTIONS” (priority 2017, published 2020):
# What was measured:
# Format in all cases: cell-based
# [1] = tested on: Proteus mirabilis (PMI) isolates; assay: microbe, parasite or virus in culture
# In short: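 First, log-phase suspensions are brought to 5.10^5 CFU/mL final in ca-MHB; plates then incubate 16-20 h at 35° C in air. Growth is judged visually, giving the compound MIC alone and the antibacterial MIC at each compound concentration.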
# [2] = tested on: Salmonella typhimurium (STY) isolates; assay: MIC of compounds alone and combined with antibacterials, broth microdilution (CLSI); conditions: for MIC ATB in combination: STY S3371
# In short: (§1)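 CLSI broth microdilution: log-phase isolates at 5.10^5 CFU/mL in cation-adjusted Mueller-Hinton broth were exposed to compound alone or in combination with an antibacterial, 16-20 h at 35° C in ambient air. MIC is the lowest concentration preventing visible growth, including the antibacterial MIC at each compound concentration.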
# [3] = tested on: Providencia stuartii (PST) isolates; assay: as above
# In short: as §1
compound,measurement,setting,value
"C=CC1=C(C(=O)O)N2C(=O)[C@@H](NC(=O)/C(=N\OCC(=O)O)c3csc(N)n3)[C@H]2SC1 [FIX, Cefixime]",MIC ATB in combination,"[1]; PMI UFR82, AF2 @ 8 μg/mL",<0.25 µg/mL
same,MIC ATB in combination,"[1]; PMI UFR82, AF3 @ 8 μg/mL",<0.25 µg/mL
same,MIC ATB in combination,"[1]; PMI UFR82, CLA @ 4 μg/mL",4 µg/mL
same,MIC ATB in combination,"[1]; PMI UFR126, AF2 @ 8 μg/mL",<0.25 µg/mL
same,MIC ATB in combination,"[1]; PMI UFR126, AF3 @ 8 μg/mL",<0.25 µg/mL
same,MIC ATB in combination,"[1]; PMI UFR126, CLA @ 4 μg/mL",<=0.25 μg/mL
same,MIC ATB in combination,"[1]; PMI UFR127, AF2 @ 8 μg/mL",<0.25 µg/mL
same,MIC ATB in combination,"[1]; PMI UFR127, AF3 @ 8 μg/mL",<0.25 µg/mL
same,MIC ATB in combination,"[1]; PMI UFR127, CLA @ 4 μg/mL",<=0.25 μg/mL
same,MIC ATB in combination,"[1]; PMI UFR128, AF2 @ 8 μg/mL",<0.25 µg/mL
same,MIC ATB in combination,"[1]; PMI UFR128, AF3 @ 8 μg/mL",<0.25 µg/mL
same,MIC ATB in combination,"[1]; PMI UFR128, CLA @ 4 μg/mL",0.5 µg/mL
same,MIC ATB in combination,"[1]; PMI UFR129, AF2 @ 8 μg/mL",<0.25 µg/mL
same,MIC ATB in combination,"[1]; PMI UFR129, AF3 @ 8 μg/mL",<0.25 µg/mL
same,MIC ATB in combination,"[1]; PMI UFR129, CLA @ 4 μg/mL",<=0.25 μg/mL
same,MIC ATB in combination,"[1]; PMI UFR130, AF2 @ 8 μg/mL",<0.25 µg/mL
same,MIC ATB in combination,"[1]; PMI UFR130, AF3 @ 8 μg/mL",<0.25 µg/mL
same,MIC ATB in combination,"[1]; PMI UFR130, CLA @ 4 μg/mL",8 µg/mL
same,MIC ATB in combination,"[1]; PMI UFR133, AF2 @ 8 μg/mL",<0.25 µg/mL
same,MIC ATB in combination,"[1]; PMI UFR133, AF3 @ 8 μg/mL",<0.25 µg/mL
same,MIC ATB in combination,"[1]; PMI UFR133, CLA @ 4 μg/mL",<=0.25 μg/mL
same,MIC ATB in combination,"[1]; PMI UFR237, AF2 @ 8 μg/mL",<0.25 µg/mL
same,MIC ATB in combination,"[1]; PMI UFR237, AF3 @ 8 μg/mL",<0.25 µg/mL
same,MIC ATB in combination,"[1]; PMI UFR237, CLA @ 4 μg/mL",<=0.25 μg/mL
same,MIC,"[1]; strain PMI UFR82, genotype CMY-2",8 µg/mL
same,MIC,"[1]; strain PMI UFR120, genotype TEM-1, SHV-11, CTX-M-14",0.5 µg/mL
same,MIC,"[1]; strain PMI UFR121, genotype TEM-1, TEM-52",128 µg/mL
same,MIC,"[1]; strain PMI UFR122, genotype TEM-1, CTX-M-15",1 µg/mL
same,MIC,"[1]; strain PMI UFR123, genotype CTX-M-1",128 µg/mL
same,MIC,"[1]; strain PMI UFR124, genotype CTX-M-2",>128 µg/mL
same,MIC,"[1]; strain PMI UFR125, genotype CTX-M-71",0.5 µg/mL
same,MIC,"[1]; strain PMI UFR126, compound alone",1024 µg/mL
same,MIC,"[1]; strain PMI UFR126, genotype TEM-2, PER-1",1024 µg/mL
same,MIC,"[1]; strain PMI UFR127, compound alone",>128 µg/mL
same,MIC,"[1]; strain PMI UFR127, genotype VEB-1",>128 µg/mL
same,MIC,"[1]; strain PMI UFR128, genotype VEB-1, OXA-10",>128 µg/mL
same,MIC,"[1]; strain PMI UFR129, genotype TEM-1, VEB-6",>128 µg/mL
same,MIC,"[1]; strain PMI UFR130, genotype CMY-2",8 µg/mL
same,MIC,"[1]; strain PMI UFR131, genotype CMY-16, OXA-1, OXA-10, NDM-1, ArmA",>128 µg/mL
same,MIC ATB in combination,"[1]; strain PMI UFR131, with AF2 @ 8 μg/mL",<0.25 µg/mL
same,MIC ATB in combination,"[1]; strain PMI UFR131, with AF3 @ 8 μg/mL",<0.25 µg/mL
same,MIC ATB in combination,"[1]; strain PMI UFR131, with CLA @ 4 μg/mL",>128 µg/mL
same,MIC,"[1]; strain PMI UFR132, genotype VEB-6, DHA-1, NDM-1, AphA6, AacA4",>128 µg/mL
same,MIC ATB in combination,"[1]; strain PMI UFR132, with AF2 @ 8 μg/mL",<0.25 µg/mL
same,MIC ATB in combination,"[1]; strain PMI UFR132, with AF3 @ 8 μg/mL",<0.25 µg/mL
same,MIC ATB in combination,"[1]; strain PMI UFR132, with CLA @ 4 μg/mL",>128 µg/mL
same,MIC,"[1]; strain PMI UFR133, genotype OXA-23",<=0.25 μg/mL
same,MIC,"[1]; strain PMI UFR237, genotype VEB-6",>128 µg/mL
same,MIC ATB in combination,[2]; AF2 @ 8 μg/mL,<0.25 µg/mL
same,MIC ATB in combination,[2]; AF3 @ 8 μg/mL,<0.25 µg/mL
same,MIC ATB in combination,[2]; CLA @ 4 μg/mL,<=0.25 μg/mL
same,MIC,"[2]; strain STY S3371, genotype OXA-1",<=0.25 μg/mL
same,MIC ATB in combination,"[3]; PST UFR94, AF2 @ 8 μg/mL",<=0.25 μg/mL
same,MIC ATB in combination,"[3]; PST UFR94, AF3 @ 8 μg/mL",<=0.25 μg/mL
same,MIC ATB in combination,"[3]; PST UFR94, CLA @ 4 μg/mL",2 µg/mL
same,MIC ATB in combination,"[3]; PST UFR95, AF2 @ 8 μg/mL",<=0.25 μg/mL
same,MIC ATB in combination,"[3]; PST UFR95, AF3 @ 8 μg/mL",<=0.25 μg/mL
same,MIC ATB in combination,"[3]; PST UFR95, CLA @ 4 μg/mL",8 µg/mL
